Data from patent US7122360B1, “Polypeptides, polynucleotides and uses thereof” (University of Dundee, priority 1998, dated 2006).
Entries after “also recorded” stand apart in the source; their conditions may differ.

Tests used:
MSK1 = assay: Activation of endogenous MSK1 in 293 cells (immunoprecipitation and Crosstide assay); format: cell-based, human; conditions: for activation of MSK1 by EGF and TPA: 50 μM PD 98059 or 10 μM SB 203580, 1 h
CREB and ATF1 = assay: TNF induced CREB and ATF1 phosphorylation in HeLa cells; format: cell-based; conditions: for TNF-induced phosphorylation of CREB after 15 min / TNF-induced phosphorylation of CREB and ATF1 after 5 min: 50 μM PD 98059, 10 μM SB 203580
Experimental: FIG. 12. […] The position of CREB and ATF1 on the blots is indicated. The time of exposure (exp) of the blots before development is indicated.
(§1) Immunoblotting for phosphorylated CREB and ATF1. Cell extracts were prepared and immunoblotting of these carried out as described (Tan et al., 1996) using a phosphospecific antibody recognizing CREB phosphorylated on Ser 133 and ATF1 phosphorylated on Ser63 purchased from UBI (Lake Placid, USA). Detection of phosphorylated CREB and ATF1 proteins was performed using the enhanced chemiluminescence reagent (Amersham).

CREB [1] = assay: NGF-induced phosphorylation of CREB in PC12 cells; format: cell-based; conditions: 50 μM PD 98059, 10 μM SB 203580, 5 μM Ro 318220, NGF 30 ng/ml 15 min
Experimental: as §1

CREB [2] = assay: Arsenite and FGF-induced phosphorylation of CREB in SK-N-MC cells; format: cell-based; conditions: for FGF-induced phosphorylation of CREB: 50 μM PD 98059, 10 μM SB 203580, FGF 50 ng/ml 15 min
Experimental: FIG. 14. […] After cell lysis aliquots were assayed for either MSK1 (A), MAPKAP-K1 (B), MAPKAP-K2 (C) after their immunoprecipitation from the lysates or immunoblotted for phosphorylation of CREB and ATF1 (D).
as §1

COX-2 protein = assay: Induction of COX-2 protein in RAW 264 macrophages, immunoblot; format: cell-based, mouse; conditions: LPS 100 ng/ml 4 h, 50 TM PD 98059, 10 TM SB 203580, 5 TM Ro 318220
Experimental: FIG. 20. […] (A) Macrophages were stimulated for the times indicated with LPS (100 ng/ml).
FIG. 22. […] (A) Macrophages were stimulated for 1 h with LPS (100 ng/ml) or for 15 min with forskolin (F) (20 TM) plus IBMX (10 TM). After cell lysis, aliquots of the lysate (30 Tg protein) were immunoblotted with a phospho-specific CREB antibody (see legend to FIG. 19 for details and molecular mass markers). (B) Macrophages were stimulated for 3 h with LPS (100 ng/ml), or forskolin (20 TM) plus IBMX (10 TM), and immunoblotting performed with a specific COX-2 antibody (materials & methods section). The marker proteins are as in FIG. 19.
(§2) Cell culture and stimulation. RAW 264 macrophages were maintained in a 95% air/5% CO2 atmosphere in Dulbecco's modified Eagle's medium (DMEM) plus 10% (v/v) heat-inactivated foetal calf serum, 100 U/ml penicillin, […] streptomycin. The day before stimulation, the macrophages were plated at a density of 2×10^6 cells per 6 cm plate and 2 h before stimulation, the medium removed and replaced with 2 ml of DMEM. Where indicated, […] (10 TM) and/or PD 98059 (50 Tm), or U0126 (10 TM) or Ro 318220 (5 TM), were added 1 h before stimulation.
Immunoblotting. For immunoblotting of CREB, nuclear cell extracts were prepared as described and immunoblotting performed using a phospho-specific antibody recognising CREB phosphorylated on Ser 133 and ATF1 phosphorylated on Ser 63. For immunoblotting of COX-2, cell lysate (30 Tg protein) was denatured in SDS, electrophoresed on 10% polyacrylamide gel, transferred to a nitrocellulose membrane, and immunoblotted with anti-COX-2 antibody (1.0 mg/ml). Detection of phosphorylated CREB and ATF1 and COX-2 was performed using the enhanced chemiluminescence reagent (ECL).

COX-2 mRNA = assay: COX-2 gene transcription in RAW 264 macrophages, RT-PCR; format: cell-based, mouse; conditions: LPS 3 h, PD 98059 (50 TM), SB 203580 (10 TM), Ro 318220 (5 TM)
Experimental: (§3) FIG. 21. Effect of PD 98059 and SB 203580 on gene transcription in RAW 264 macrophages. (A) Cells were stimulated for the times indicated with LPS (100 ng/ml). Total RNA was extracted at each time point and mRNA encoding IL-1, COX-2 and HRPT was determined using the reverse transcriptase polymerase chain reaction (Section 2.6). (B) As in A, except that the macrophages were incubated for 1 h in the presence or absence of PD 98059 (50 TM) and/or SB 203580 (10 TM), or Ro 318220 (5 TM), then stimulated for 3 h in the absence or presence of LPS, and in the continued presence or absence of the inhibitors. RTPCR was performed using oligonucleotides encoding fragments of IL-1, COX-2 and HPRT.
as §2
(§4) Reverse transcripts polymerase chain reactions. Total RNA was prepared from LPS-stimulated or control RAW 264 cells using the Rneasy Mini Kit according to the manufacturer's protocol. Total RNA was measured and 100 ng was reverse transcribed using Promega AMV reverse transcriptase (5 U/ml) with the oligonucleotides […] and […] TGA (coding for the IL-1 gene) and […] and […] (coding for the COX-2 gene). Conditions for PCR amplification of the resulting first-stand DNA template were 94° C. denaturing for 30 sec, 60° C. annealing for 1 min, 68° C. extension for 1 min, 30 cycles using thermostable Tf1 DNA polymerase (SU/ml), and 1 mM MgSO4.

IL-1 mRNA = assay: IL-1 gene transcription in RAW 264 macrophages, RT-PCR; format: cell-based, mouse; conditions: LPS 3 h, PD 98059 (50 TM), SB 203580 (10 TM), Ro 318220 (5 TM)
Experimental: as §3, §2, §4

HPRT mRNA = assay: HPRT housekeeping gene mRNA in RAW 264 macrophages, RT-PCR; format: cell-based, mouse; conditions: PD 98059 (50 TM), SB 203580 (10 TM), Ro 318220 (5 TM)
Experimental: as §3, §2, §4

HSP27 = assay: UV induced phosphorylation of HSP27 in 293 cells; format: cell-based, human; conditions: UV 200 J/m^2
Experimental: FIG. 9. Effect of Ro 318220 on the activity of MSK1. (A) Effect of Ro 318220 on GST-MSK1 (closed circles), mixed PKC isoforms (open circles) GST-MAPKAP-K1b and MAPKAP-K2 (open triangles) in vitro. […] The error for each point is ±10%. […] The cells were lysed MAPKAP-K2 was immunoprecipitated and assayed. […] (C) as above except that 293 cells were incubated for 2 h in 32phosphate (0.1 mCi/ml) before treatment with inhibitors. Cells were then exposed to either UV radiation (200 J/m2) or left untreated (−), incubated for a further 20 min in the continued presence of inhibitors. Following cell lysis, HSP27 was immunoprecipitated from cell extracts (Cuenda et al., 1995) run on a 15% polyacrylamide gel and autoradiographed.

MSK2 = assay: LPS-induced activation of MSK2 in RAW 264 macrophages; format: cell-based, mouse; conditions: LPS 100 ng/ml 1 h, 10 μM UO 126, 10 μM SB 203580, 5 TM Ro 318220

| SMILES | activation of MSK1 by EGF and TPA (MSK1) | TNF-induced phosphorylation of CREB after 15 min (CREB and ATF1) | TNF-induced phosphorylation of CREB and ATF1 after 5 min (CREB and ATF1) | NGF-induced phosphorylation of CREB (CREB [1]) | FGF-induced phosphorylation of CREB (CREB [2]) | LPS-stimulated induction of COX-2 protein (COX-2 protein) | LPS induction of COX-2 mRNA (COX-2 mRNA) | LPS induction of IL-1 mRNA (IL-1 mRNA) | mRNA encoding the housekeeping gene HPRT (HPRT mRNA) | UV induced phosphorylation of HSP27 (HSP27) | TNF-induced CREB phosphorylation (CREB and ATF1; 5 μM Ro 318220) | phosphorylation of CREB at Ser133 (CREB [2]; sodium arsenite or FGF, 5 μM Ro 318220) | LPS-induced activation of MSK2 (MSK2) | activation of MSK1 by stressful stimuli (MSK1; sodium arsenite, UV radiation or H2O2, 50 μM PD 98059 or 10 μM SB 203580) | sodium arsenite-induced activation of CREB (CREB [2]; 50 μM PD 98059, 10 μM SB 203580, arsenite 0.5 mM 15 min) |
| --- | --- | --- | --- | --- | --- | --- | --- | --- | --- | --- | --- | --- | --- | --- | --- |
| COc1cccc(-c2cc(=O)c3ccccc3o2)c1N [PD 98059] | largely prevented | slightly suppressed | unaffected | not significantly affected | only inhibited slightly; also recorded: did not significantly suppress | partially inhibited | partially suppressed | partially inhibited | unaffected | – | – | – | – | – | – |
| Cn1cc(C2=C(c3cn(CCCSC(=N)N)c4ccccc34)C(=O)NC2=O)c2ccccc21 [Ro 318220] | – | – | – | suppressed | – | suppresses | suppresses | suppresses | unaffected | did not significantly affect | completely blocked | largely suppressed | does not affect | – | – |
| C[S+]([O-])c1ccc(-c2nc(-c3ccncc3)c(-c3ccc(F)cc3)[nH]2)cc1 (stereo not shown) [SB 203580] | but not by SB 203580 | partially suppressed | prevented | not significantly affected | only inhibited slightly | partially inhibited | partially suppressed | partially inhibited | unaffected | blocked | – | – | only inhibited partially | largely inhibited | prevented |
